Data taken from patent US9561228B2 (Celgene Avilomics Research, Inc., priority 2013, dated 2017).

What was measured:
MEK1 activated ERK1 = target: T1, MEK1 activated ERK1 (Homo sapiens, UniProt P27361); assay: Omnia continuous-read kinase assay for potency against MEK1 activated ERK1; type: biochemical; conditions: MEK1 activated ERK1, ATP at KM; read-out: ERK1 Omnia WT ATP KM IC50
T1 construct: purchased Millipore (Billerica, Mass.) 14-439-K
In short: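 Apparent IC50 came from initial reaction slopes (RFU vs time) plotted against log inhibitor with a variable-slope fit. Reactions were started with ERK1 (4 nM final) added to 50 μM ATP, roughly at its appKM, and 10 μM Sox-conjugated ST17 peptide in 20 mM Tris pH 7.5, 5 mM MgCl2. Fluorescence was monitored every 71 seconds.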

[1] = system: ERK1/2 phosphorylation of p90RSK in HT29 cells; assay: pRSK MSD Assay in HT29 cells; type: cell-based; conditions: Homo sapiens, HT-29, read-out: ERK1/ERK2 PRSK MSD HT29 EC50
In short: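 Phospho-RSK level, read by electrochemiluminescence on RSK-antibody-coated MSD plates with a phospho-RSK/Sulfo-tag detection pair, reports cellular ERK1/2 activity. HT29 cells, kept overnight in 0.1% FBS medium, were exposed to compound for 120 min at 37° C before lysis.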

[2] = system: HT-29 cells (colorectal adenocarcinoma); assay: Inhibition of cancer cell proliferation, HT-29 (CellTiterGlo, 72 hours); type: cell-based; conditions: Homo sapiens
Protocol: Measurement of Inhibition of Cancer Cell Proliferation (HT-29/Colorectal Adenocarcinoma)
The following protocol used an HT-29 cell line, which cell line is a model for colorectal adenocarcinoma. HT-29 cells were split and 3000 cells in 100 μl of growth medium were added per well of a flat-bottom 96-well plate. A two-fold test compound solution in serum-free RPM1640 was made, starting at 5,000 nM. Then, 3-fold serial dilutions were made across the plate from well 1 to well 11. Well 12, the last well in a row on the plate, was left as untreated control. 100 μl compound solutions were then transferred to the wells, so the total volume of media was 200 μl per well. Plates were returned to a 37° C. incubator, and the cells were cultured for 72 hours. To measure cell proliferation after 72 hours, media was discarded from the plates, 50 μl/well of fresh medium was added, and 50 μl CellTiterGlo solution was added (Promega Cat#G7573). The plate was covered with a dark lid and incubated for 10 min. A white sealing tape was applied to the bottom of the plate, and the plate was read in a luminescence plate reader. […] A 2-fold serial dilution was used to generate 8 cell densities from 50,000-390 cells per well in 50 μl media. 50 μl CellTiterGlo was added per well, and the plate was read in a luminescence plate reader after 10 min. The reading was plotted vs. cell number to generate a standard curve and the equation of the curve fit. The compound-treated sample luminescence readings were converted to cell numbers using the curve-fit equation. The percent of inhibition, using untreated control as 100% growth, was then calculated. GI50 was then calculated by GraphPad Prism.

T1 sequence (P27361 whole entry): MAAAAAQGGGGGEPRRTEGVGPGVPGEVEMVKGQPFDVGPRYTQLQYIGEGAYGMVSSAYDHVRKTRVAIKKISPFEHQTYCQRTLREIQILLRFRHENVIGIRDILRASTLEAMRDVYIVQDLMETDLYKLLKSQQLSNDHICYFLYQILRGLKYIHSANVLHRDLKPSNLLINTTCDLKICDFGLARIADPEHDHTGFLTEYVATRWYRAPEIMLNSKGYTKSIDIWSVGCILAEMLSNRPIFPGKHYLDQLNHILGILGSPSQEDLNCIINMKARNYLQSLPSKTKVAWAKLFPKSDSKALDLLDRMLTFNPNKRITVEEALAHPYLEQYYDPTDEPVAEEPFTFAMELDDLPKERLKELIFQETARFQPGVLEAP

IC50 (MEK1 activated ERK1) [nM]	EC50 [1] [nM]	GI50 [2] [nM]	Structure (SMILES)
101 to 500	> 1000	> 1000	C=CC(=O)Nc1ccccc1Nc1nc(Nc2ccc(N(CC)C(C)=O)cc2OC)ncc1Cl [Compound I-155, N-(2-((5-chloro-2-((4-(N-ethylacetamido)-2-methoxyphenyl)amino)pyrimidin-4-yl)amino)phenyl)acrylamide]
101 to 500	> 1000	> 1000	C=CC(=O)Nc1ccccc1Nc1nc(Nc2ccc(N(CCCN)C(C)=O)cc2OC)ncc1Cl [Compound I-167, N-(2-((2-((4-(N-(3-aminopropyl)acetamido)-2-methoxyphenyl)amino)-5-chloropyrimidin-4-yl)amino)phenyl)acrylamide]
–	< 100	< 100	C=CC(=O)Nc1ccccc1Nc1nc(Nc2cc(C(N)=O)ccc2C#N)ncc1Cl [Compound I-192, 3-((4-((2-acrylamidophenyl)amino)-5-chloropyrimidin-2-yl)amino)-4-cyanobenzamide]
101 to 500	101 to 500	101 to 500	C=CC(=O)Nc1ccccc1Nc1nc(Nc2cc(C(N)=O)ccc2C)ncc1C [Compound I-224, 3-(4-(2-acrylamidophenylamino)-5-methylpyrimidin-2-ylamino)-4-methyl benzamide]
–	< 100	501 to 999	C=CC(=O)Nc1cc(F)ccc1Nc1nc(Nc2ccc(F)cc2C#N)ncc1Cl [Compound I-221, N-(2-((5-chloro-2-((2-cyano-4-fluorophenyl)amino)pyrimidin-4-yl)amino)-5-fluorophenyl)acrylamide]
101 to 500	–	> 1000	C=CC(=O)Nc1ccccc1Nc1nc(Nc2cc(C(=O)NOC)ccc2C#N)ncc1C(F)(F)F [Compound I-72, 3-((4-((2-Acrylamidophenyl)amino)-5-(trifluoromethyl)pyrimidin-2-yl)amino)-4-cyano-N-methoxybenzamide]
–	< 100	101 to 500	C=CC(=O)Nc1cc(F)ccc1Nc1nc(Nc2cc(C(N)=O)ccc2OC)ncc1Cl [Compound I-208]
–	< 100	101 to 500	C=CC(=O)Nc1ccccc1Nc1nc(NC2CCN(C=O)CC2)ncc1Cl [Compound I-124, N-(2-((5-chloro-2-((1-formylpiperidin-4-yl)amino)pyrimidin-4-yl)amino)phenyl)acrylamide]
–	101 to 500	101 to 500	C=CC(=O)Nc1ccccc1Nc1nc(Nc2cc(C(N)=O)ccc2CC)ncc1Cl [Compound I-193, 3-((4-((2-acrylamidophenyl)amino)-5-chloropyrimidin-2-yl)amino)-4-ethylbenzamide]
–	< 100	101 to 500	C=CC(=O)Nc1ccccc1Nc1nc(Nc2cc(C(N)=O)ccc2C#N)ncc1C(F)(F)F [Compound I-71, 3-((4-((2-Acrylamidophenyl)amino)-5-(trifluoromethyl)pyrimidin-2-yl)amino)-4-cyanobenzamide]
–	501 to 999	101 to 500	C=CC(=O)Nc1ccccc1Nc1nc(N[C@@H]2CCC[C@H](C(N)=O)C2)ncc1Cl [Compound I-119, (1S,3R)-3-((4-((2-acrylamidophenyl)amino)-5-chloropyrimidin-2-yl)amino)cyclohexanecarboxamide]
–	101 to 500	< 100	C=CC(=O)Nc1ccccc1Nc1nc(Nc2cc(C(=O)NOC)ccc2C)ncc1C(F)(F)F [Compound I-69, 3-((4-((2-Acrylamidophenyl)amino)-5-(trifluoromethyl)pyrimidin-2-yl)amino)-N-methoxy-4-methylbenzamide]

Further lines, the compound ahead of its results:

Structure (SMILES)	IC50 (MEK1 activated ERK1) [nM]	EC50 [1] [nM]	GI50 [2] [nM]
C=CC(=O)Nc1ccccc1Nc1nc(Nc2cc(C(N)=O)c(OCCCNC(=O)CCCC(=O)NCCCOCCOCCOCCCNC(=O)CCCC[C@@H]3SC[C@@H]4NC(=O)N[C@@H]43)cc2C)ncc1Cl [Compound I-299, N^1-(3-(4-((4-((2-acrylamidophenyl)amino)-5-chloropyrimidin-2-yl)amino)-2-carbamoyl-5-methylphenoxy)propyl)-N^5-(15-oxo-19-((3aS,4S,6aR)-2-oxohexahydro-1H-thieno[3,4-d]imidazol-4-yl)-4,7,10-trioxa-14-azanonadecyl)glutaramide]	101 to 500	> 1000	> 1000
C=CC(=O)N[C@@H]1CCCC[C@H]1Nc1nc(Nc2cc(C(=O)NOC)ccc2C)ncc1C(N)=O (racemic) [Compound I-256, Rac-trans-4-((2-acrylamidocyclohexyl)amino)-2-((5-(methoxycarbamoyl)-2-methylphenyl)amino)pyrimidine-5-carboxamide]	> 1000	–	> 1000
C=CC(=O)Nc1cc(OC)ccc1Nc1nc(Nc2ccc3c(c2)CC(=O)N3CC)ncc1Cl [Compound I-166, N-(2-((5-chloro-2-((1-ethyl-2-oxoindolin-5-yl)amino)pyrimidin-4-yl)amino)-5-methoxyphenyl)acrylamide]	101 to 500	101 to 500	101 to 500
C=CC(=O)Nc1ccccc1Nc1nc(NC2CCN(C(=O)CCCC(=O)NCCCOCCOCCOCCCNC(=O)CCCC[C@@H]3SC[C@@H]4NC(=O)N[C@@H]43)CC2)ncc1Cl [Compound I-300, 5-(4-((4-((2-acrylamidophenyl)amino)-5-chloropyrimidin-2-yl)amino)piperidin-1-yl)-5-oxo-N-(15-oxo-19-((3aS,4S,6aR)-2-oxohexahydro-1H-thieno[3,4-d]imidazol-4-yl)-4,7,10-trioxa-14-azanonadecyl)pentanamide]	101 to 500	> 1000	> 1000
C=CC(=O)Nc1ccccc1Nc1nc(N[C@H]2CCCN(S(C)(=O)=O)C2)ncc1Cl [Compound I-125, (S)—N-(2-((5-chloro-2-((1-(methylsulfonyl)piperidin-3-yl)amino)pyrimidin-4-yl)amino)phenyl)acrylamide]	–	101 to 500	101 to 500
C=CC(=O)Nc1ccccc1Nc1nc(N[C@@H]2CCC[C@H](C(=O)NOCCO)C2)ncc1Cl (racemic) [Compound I-103, Rac-3-((4-((2-acrylamidophenyl)amino)-5-chloropyrimidin-2-yl)amino)-N-(2-hydroxyethoxy)-cis-cyclohexanecarboxamide]	< 100	101 to 500	< 100
C=CC(=O)Nc1cc(F)ccc1Nc1nc(N[C@@H]2CCC[C@H](C(N)=O)C2)ncc1C(F)(F)F (racemic) [Compound I-5, Rac-cis-3-((4-((2-acrylamido-4-fluorophenyl)amino)-5-(trifluoromethyl)pyrimidin-2-yl)amino)cyclohexanecarboxamide]	< 100	101 to 500	101 to 500
C=CC(=O)Nc1ccccc1Oc1nc(Nc2ccc(N3CCC[C@@H]3CO)cc2OC)ncc1C(N)=O [Compound I-263, (R)-4-(2-acrylamidophenoxy)-2-((4-(2-(hydroxymethyl)pyrrolidin-1-yl)-2-methoxyphenyl)amino)pyrimidine-5-carboxamide]	101 to 500	> 1000	> 1000
C=CC(=O)Nc1ccccc1Oc1nc(Nc2ccc(N3CCC[C@@H]3C(N)=O)cc2OC)ncc1C(N)=O [Compound I-266, (R)-4-(2-acrylamidophenoxy)-2-((4-(2-carbamoylpyrrolidin-1-yl)-2-methoxyphenyl)amino)pyrimidine-5-carboxamide]	101 to 500	–	> 1000
C=CC(=O)Nc1ccccc1Nc1nc(NC2CCC(F)(F)CC2)ncc1Cl [Compound I-127, N-(2-((5-chloro-2-((4,4-difluorocyclohexyl)amino)pyrimidin-4-yl)amino)phenyl)acrylamide]	101 to 500	101 to 500	101 to 500
C=CC(=O)N[C@@H]1CCCC[C@H]1Nc1nc(Nc2cc(C(N)=O)ccc2C)ncc1C(N)=O (racemic) [Compound I-255, Rac-trans-4-((2-acrylamidocyclohexyl)amino)-2-((5-carbamoyl-2-methylphenyl)amino)pyrimidine-5-carboxamide]	> 1000	–	> 1000
C=CC(=O)Nc1ccccc1Nc1nc(N[C@H]2CCCN(C=O)C2)ncc1C(F)(F)F [Compound I-9, (S)—N-(2-((2-((1-formylpiperidin-3-yl)amino)-5-(trifluoromethyl)pyrimidin-4-yl)amino)phenyl)acrylamide]	–	< 100	101 to 500
C=CC(=O)Nc1ccccc1Nc1nc(NC2CCN(S(C)(=O)=O)CC2)ncc1C(F)(F)F [Compound I-13, N-(2-((2-((1-(methylsulfonyl)piperidin-4-yl)amino)-5-(trifluoromethyl)pyrimidin-4-yl)amino)phenyl)acrylamide]	–	101 to 500	101 to 500
